What was measured:
[1] = system: Cables mRNA levels in HES cells; test: Northern analysis of Cables mRNA after hormone treatment, HES cells; format: cell-based, human; details: vs untreated controls
Description: FIGS. 15A and 15B are images showing northern analysis of Cables mRNA levels in HES cells (FIG. 15A) and SK-UT2 cells (FIG. 15B) following progesterone treatment.
FIGS. 16A and 16B are images showing northern analysis of Cables mRNA levels in HES cells (FIG. 16A) and SK-UT2 cells (FIG. 16B) following progesterone or estrogen treatment.
(§1) Cell lines have been used to investigate the effect of hormonal regulation on Cables expression, as well as the effect of Cables overexpression on these cells. We have isolated RNA and protein from HES, Ishikawa, and SK-UT2 endometrial cells lines for analysis. The influence of progesterone and estrogen on Cables expression was evaluated in these cells. […] Western analysis confirmed that a protein product was present. Conversely, estrogen reduced the levels of Cables mRNA expression in these cell lines (FIG. 16A). There is was no hormonal effect on Cables mRNA expression in SK-UT2 cells, which are derived from a G3 human uterine cancer (FIGS. 15B and 16B).

[2] = system: Cables mRNA levels in Ishikawa cells; test: Cables mRNA after hormone treatment, Ishikawa cells; format: cell-based; details: vs untreated controls
Experimental: as §1

cdk2 = cdk2 (UniProt P24941); test: cell-based or functional assay

Chain of Wee1 (P30291 whole entry): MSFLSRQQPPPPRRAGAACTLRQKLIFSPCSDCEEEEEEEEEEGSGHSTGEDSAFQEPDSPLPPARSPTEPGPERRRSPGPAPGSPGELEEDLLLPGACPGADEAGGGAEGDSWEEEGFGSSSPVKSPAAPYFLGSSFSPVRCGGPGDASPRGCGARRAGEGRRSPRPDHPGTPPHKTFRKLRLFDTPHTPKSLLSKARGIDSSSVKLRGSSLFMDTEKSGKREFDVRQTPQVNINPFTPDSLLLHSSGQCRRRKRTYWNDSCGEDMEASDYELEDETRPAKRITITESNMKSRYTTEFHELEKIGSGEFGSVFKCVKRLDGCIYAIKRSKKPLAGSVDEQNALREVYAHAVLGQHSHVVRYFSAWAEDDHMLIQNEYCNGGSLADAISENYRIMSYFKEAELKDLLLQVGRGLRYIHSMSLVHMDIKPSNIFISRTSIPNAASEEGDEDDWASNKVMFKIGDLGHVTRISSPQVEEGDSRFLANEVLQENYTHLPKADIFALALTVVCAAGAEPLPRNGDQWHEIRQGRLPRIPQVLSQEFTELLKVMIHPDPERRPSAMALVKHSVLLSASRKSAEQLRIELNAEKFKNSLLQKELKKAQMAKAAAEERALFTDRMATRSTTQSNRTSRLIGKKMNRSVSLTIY
Chain of Cables (full length, expressed from a transfected construct) (Q9ESJ1 whole entry): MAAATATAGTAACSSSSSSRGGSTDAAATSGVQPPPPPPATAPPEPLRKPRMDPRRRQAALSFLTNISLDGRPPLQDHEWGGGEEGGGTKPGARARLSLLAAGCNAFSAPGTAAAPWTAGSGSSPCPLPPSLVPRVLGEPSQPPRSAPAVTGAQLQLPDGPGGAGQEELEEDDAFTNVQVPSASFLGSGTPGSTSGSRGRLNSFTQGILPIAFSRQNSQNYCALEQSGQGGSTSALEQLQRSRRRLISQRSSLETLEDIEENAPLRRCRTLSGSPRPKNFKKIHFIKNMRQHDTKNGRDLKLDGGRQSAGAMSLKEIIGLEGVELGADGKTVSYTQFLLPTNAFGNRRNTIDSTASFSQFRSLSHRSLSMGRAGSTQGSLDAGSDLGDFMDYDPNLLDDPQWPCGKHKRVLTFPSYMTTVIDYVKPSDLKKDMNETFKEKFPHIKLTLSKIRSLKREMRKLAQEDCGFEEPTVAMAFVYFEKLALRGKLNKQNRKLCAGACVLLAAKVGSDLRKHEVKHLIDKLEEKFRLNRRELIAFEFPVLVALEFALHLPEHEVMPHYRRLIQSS

Row | Compound | Cables mRNA levels [1] | Cables mRNA levels [2] | level of tyrosine phosphorylation of cdk2 (cdk2 immunoprecipitation, antiphosphotyrosine western blot, COS7 cells coexpressing Cables and Wee1) (times basal level) (cdk2) | Y15-phosphorylated cdk2 in stable Cables cell lines against control cell lines (cdk2 immunoprecipitation, phospho-Tyr15 antibody) (cdk2)
1 | estrogen | reduced | reduced |  | 
2 | Wee1 (from UniProt P30291 1-646) (enzyme) |  |  | 30 | 
3 | CC(=O)[C@H]1CC[C@H]2[C@@H]3CCC4=CC(=O)CC[C@]4(C)[C@H]3CC[C@]12C [Progestin, progesterone] | dose dependent elevation | dose dependent elevation |  | 
4 | Cables (full length, expressed from a transfected construct) |  |  |  | 5 fold
